The text below walks through data of patent US20250059220A1, “SUBSTITUTED BENZOTHIOPHENE DERIVATIVES AND METHODS OF USE THEREOF” (Merck Sharp & Dohme LLC, priority 2021, published 2025).

For test [1], the target named is human PTPN1 (1-435) (Homo sapiens (Human), UniProt P18031). Nature of the test: Human PTPN1 Biochemical Assay. The settings on record: DiFMUP substrate, read-out: PTP1B IC50. The method in brief:
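Read-out is DiFMUP hydrolysis fluorescence (360 nm excitation, 460 nm emission) after 1 h at room temperature, following 30 min enzyme–compound preincubation.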

Test [2] concerns the target human PTPN2 (1-387) (Homo sapiens (Human), UniProt P17706). Nature of the test: Human PTPN2 Biochemical Assay. The conditions noted are these: DiFMUP substrate. Summed up: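 Fluorogenic DiFMUP hydrolysis (1 h, room temperature, read ex 360/em 460 nm) after 30 min compound preincubation with PTPN2 residues 1-387, in 50 mM Tris pH 7.4, 150 mM NaCl, 0.01% Tween20, 0.5 mM DTT. Effects scaled between buffer and enzyme controls, 4-parameter fit gives EC50.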

Chain of human PTPN2 (1-387) (P17706 other isoform, or with tags, fused parts or gaps): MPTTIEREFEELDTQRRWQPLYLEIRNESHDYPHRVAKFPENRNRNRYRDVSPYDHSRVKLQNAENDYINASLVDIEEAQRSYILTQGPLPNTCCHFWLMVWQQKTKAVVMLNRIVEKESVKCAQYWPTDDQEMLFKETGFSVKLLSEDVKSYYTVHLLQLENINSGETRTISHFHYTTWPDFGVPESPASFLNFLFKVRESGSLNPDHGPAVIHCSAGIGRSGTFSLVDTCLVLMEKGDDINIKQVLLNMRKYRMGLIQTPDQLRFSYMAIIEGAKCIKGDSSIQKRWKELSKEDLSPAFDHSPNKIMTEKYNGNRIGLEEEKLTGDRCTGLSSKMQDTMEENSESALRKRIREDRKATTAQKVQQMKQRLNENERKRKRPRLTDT
Chain of human PTPN1 (1-435) (P18031 whole entry): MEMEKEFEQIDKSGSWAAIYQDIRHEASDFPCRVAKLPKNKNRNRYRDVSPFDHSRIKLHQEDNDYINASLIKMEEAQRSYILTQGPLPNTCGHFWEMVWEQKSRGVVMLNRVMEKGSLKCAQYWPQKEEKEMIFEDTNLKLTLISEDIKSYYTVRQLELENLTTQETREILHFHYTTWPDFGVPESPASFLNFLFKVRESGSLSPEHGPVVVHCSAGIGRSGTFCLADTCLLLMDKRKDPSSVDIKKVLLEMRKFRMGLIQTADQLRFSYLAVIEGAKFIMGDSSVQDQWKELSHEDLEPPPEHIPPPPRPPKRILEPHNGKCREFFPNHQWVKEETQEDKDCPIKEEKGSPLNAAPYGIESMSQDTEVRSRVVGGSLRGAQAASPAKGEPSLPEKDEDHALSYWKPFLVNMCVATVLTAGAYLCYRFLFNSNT

On to `O=P(O)(O)C(F)(F)c1sc2c(OCCCC(F)(F)F)cc(-c3ccn[nH]3)cc2c1Br` [Compound 260, ((3-bromo-5-(1H-pyrazol-5-yl)-7-(4,4,4-trifluorobutoxy)benzo[b]thiophen-2-yl)difluoromethyl)phosphonic acid], for which the IC50 in test [1] was found to be 11.4 nM; in test [2] it was 15.7 nM.

As for `N=C(N)c1cc(OCCCC(F)(F)F)c2sc(C(F)(F)P(=O)(O)O)c(Br)c2c1` [Compound 262, ((3-bromo-5-carbamimidoyl-7-(4,4,4-trifluorobutoxy)benzo[b]thiophen-2-yl)difluoromethyl)phosphonic acid], the IC50 in test [1] stood at 42 nM; in test [2] it was 113 nM.

As for `O=P(O)(O)C(F)(F)c1sc2c(OCCCC(F)(F)F)cc(CN3CCOCC3)cc2c1Br` [Compound 263, ((3-bromo-5-(morpholinomethyl)-7-(4,4,4-trifluorobutoxy)benzo[b]thiophen-2-yl)difluoromethyl)phosphonic acid], the values for the IC50 in test [1] and in test [2] were 386 nM and 651 nM, respectively.

Turning to `NC(=O)c1cc(OCCC2CCCS2(=O)=O)c2sc(C(F)(F)P(=O)(O)O)c(Br)c2c1` (stereo not drawn) [Compound 264, ((3-bromo-5-carbamoyl-7-(2-(1,1-dioxidotetrahydrothiophen-2-yl)ethoxy)benzo[b]thiophen-2-yl)difluoromethyl)phosphonic acid], the IC50 in test [1] came out at 24 nM; in test [2] it was 26.3 nM.

Take `O=C(NCc1cccnn1)c1cc(OCCCCn2ccnc2)c2sc(C(F)(F)P(=O)(O)O)c(Br)c2c1` [Compound 265]: the results for the half-maximal inhibitory concentration (IC50) in test [1] and in test [2] were 62 nM and 60.3 nM, respectively.

On to `O=C(NCc1cccnn1)c1cc(OCCCc2cccnc2)c2sc(C(F)(F)P(=O)(O)O)c(Br)c2c1` [Compound 266], for which the IC50 in test [1] came to 17.4 nM; in test [2], 12.9 nM.

Regarding `O=C(NCc1cccnn1)c1cc(OCCCc2ccncc2)c2sc(C(F)(F)P(=O)(O)O)c(Br)c2c1` [Compound 267], the figures for the IC50 in test [1] and in test [2] were 26 nM and 12.2 nM, respectively.

`O=C(NCc1cccnn1)c1cc(OCCCc2cncs2)c2sc(C(F)(F)P(=O)(O)O)c(Br)c2c1` [Compound 268]: the IC50 was determined as 15.7 nM in test [1] and 20 nM in test [2].

Take `NC(=O)c1cc(OCCCc2cncs2)c2sc(C(F)(F)P(=O)(O)O)c(Br)c2c1` [Compound 269]: the IC50 in test [1] is 37.1 nM; in test [2] it was 26.4 nM.

As to `CS(=O)(=O)CCCOc1cc(C(N)=O)cc2c(Br)c(C(F)(F)P(=O)(O)O)sc12` [Compound 270], the IC50 came out at 23.3 nM in test [1] and 21.6 nM in test [2].

On to `NC(=O)c1cc(OCCC(F)(F)F)c2sc(C(F)(F)P(=O)(O)O)c(Br)c2c1` [Compound 271], for which the figures for the concentration for half-maximal inhibition (IC50) in test [1] and in test [2] were 400 nM and 338 nM, respectively.

For the compound `NC(=O)c1cc(OCCCC(F)(F)C(F)(F)F)c2sc(C(F)(F)P(=O)(O)O)c(Br)c2c1` [Compound 272], the IC50 in test [1] is 35 nM; in test [2], 47.2 nM.

In the case of `CCOCCCOc1cc(C(N)=O)cc2c(Br)c(C(F)(F)P(=O)(O)O)sc12` [Compound 273], the IC50 is 93 nM in test [1] and 132 nM in test [2].

With `NC(=O)c1cc(OCCCCC(F)(F)F)c2sc(C(F)(F)P(=O)(O)O)c(Br)c2c1` [Compound 274], the results for the IC50 in test [1] and in test [2] were 43 nM and 64.9 nM, respectively.

As for `NC(=O)c1cc(OCC2CC(F)(F)C2(F)F)c2sc(C(F)(F)P(=O)(O)O)c(Br)c2c1` (stereo not drawn) [Compound 275], the IC50 in test [1] came to 83 nM; in test [2], 176 nM.

As to `NC(=O)c1cc(OCC2CC3(C2)CC(F)(F)C3)c2sc(C(F)(F)P(=O)(O)O)c(Br)c2c1` [Compound 276], the IC50 in test [1] was 17 nM; in test [2], 27.3 nM.

As to `C[C@@H]1C[C@@]1(F)COc1cc(C(N)=O)cc2c(Br)c(C(F)(F)P(=O)(O)O)sc12` [Compound 277], the IC50 was determined as 69 nM in test [1] and 108 nM in test [2].

In the case of `CC(C)(C#N)CCCOc1cc(C(N)=O)cc2c(Br)c(C(F)(F)P(=O)(O)O)sc12` [Compound 278], the IC50 was found to be 16 nM in test [1] and 17.4 nM in test [2].

For `NC(=O)c1cc(OC[C@@H]2CC[C@H]2C(F)(F)F)c2sc(C(F)(F)P(=O)(O)O)c(Br)c2c1` [Compound 279], the IC50 in test [1] worked out at 97 nM; in test [2], 231 nM.

For the compound `NC(=O)c1cc(OCC2CC(OC(F)(F)F)C2)c2sc(C(F)(F)P(=O)(O)O)c(Br)c2c1` (stereo not drawn) [Compound 280], the figures for the IC50 in test [1] and in test [2] were 62 nM and 99.4 nM, respectively.

Consider `CC(F)(F)CCCOc1cc(C(N)=O)cc2c(Br)c(C(F)(F)P(=O)(O)O)sc12` [Compound 281], for which the IC50 in test [1] amounted to 18 nM; in test [2] it was 27.8 nM.

On to `NC(=O)c1cc(OCC[C@@H]2C[C@H]2C(F)(F)F)c2sc(C(F)(F)P(=O)(O)O)c(Br)c2c1` [Compound 282], for which the half-maximal inhibitory concentration (IC50) in test [1] is 71 nM; in test [2] it was 168 nM.

Turning to `CC12CC(COc3cc(C(N)=O)cc4c(Br)c(C(F)(F)P(=O)(O)O)sc34)(C1)C2` [Compound 283], the 50% inhibitory concentration (IC50) in test [1] came out at 28 nM; in test [2] it was 50.2 nM.

As to `NC(=O)c1cc(OCC2CC3(CCC3)C2)c2sc(C(F)(F)P(=O)(O)O)c(Br)c2c1` [Compound 284], the IC50 in test [1] worked out at 42 nM; in test [2] it was 64.5 nM.

As for `NC(=O)c1cc(OCCCCC(F)(F)C(F)(F)F)c2sc(C(F)(F)P(=O)(O)O)c(Br)c2c1` [Compound 285], the half-maximal inhibitory concentration (IC50) in test [1] turned out to be 45 nM; in test [2], 77.9 nM.

In the case of `NC(=O)c1cc(OCCC2CC2(F)F)c2sc(C(F)(F)P(=O)(O)O)c(Br)c2c1` (stereo not drawn) [Compound 286], the half-inhibitory concentration (IC50) in test [1] was found to be 40 nM; in test [2], 76.9 nM.

`NC(=O)c1cc(OCC2C3CC4C(C3)C24)c2sc(C(F)(F)P(=O)(O)O)c(Br)c2c1` (stereo not drawn) [Compound 287]: the IC50 in test [1] was 16 nM; in test [2], 45.3 nM.

As to `N#CC1(c2ccc(COc3cc(C(N)=O)cc4c(Br)c(C(F)(F)P(=O)(O)O)sc34)cc2)CC1` [Compound 288], the IC50 is 7.3 nM in test [1] and 6.86 nM in test [2].

On to `CC[C@@H]1C[C@H]1COc1cc(C(N)=O)cc2c(Br)c(C(F)(F)P(=O)(O)O)sc12` [Compound 289], for which the IC50 in test [1] is 53.6 nM; in test [2] it was 63.2 nM.

Take `NC(=O)c1cc(OCC23COC(CF)(C2)C3)c2sc(C(F)(F)P(=O)(O)O)c(Br)c2c1` [Compound 290]: the IC50 in test [1] came to 11 nM; in test [2], 9.74 nM.

As for `NC(=O)c1cc(OCCC(F)(F)C(F)(F)C(F)F)c2sc(C(F)(F)P(=O)(O)O)c(Br)c2c1` [Compound 291], the figures for the IC50 in test [1] and in test [2] were 21 nM and 26.8 nM, respectively.

In the case of `CC1(C)CC(COc2cc(C(N)=O)cc3c(Br)c(C(F)(F)P(=O)(O)O)sc23)C1` [Compound 292], the IC50 was 49 nM in test [1] and 78.6 nM in test [2].

Consider `NC(=O)c1cc(OCCC23CC(C2)C3)c2sc(C(F)(F)P(=O)(O)O)c(Br)c2c1` [Compound 293], for which the IC50 in test [1] turned out to be 246 nM; in test [2], 619 nM.

For the compound `NC(=O)c1cc(OCC2C(F)(F)C23CCC3)c2sc(C(F)(F)P(=O)(O)O)c(Br)c2c1` (stereo not drawn) [Compound 294], the values for the IC50 in test [1] and in test [2] were 38 nM and 80.7 nM, respectively.

Turning to `NC(=O)c1cc(OCC2CC(C3CC3)C2)c2sc(C(F)(F)P(=O)(O)O)c(Br)c2c1` (stereo not drawn) [Compound 295], the IC50 in test [1] was 38 nM; in test [2], 38.9 nM.

Take `N#Cc1ccc2cc(C(F)(F)P(=O)(O)O)sc2c1Br` [Compound 297, ((7-bromo-6-cyanobenzo[b]thiophen-2-yl)difluoromethyl)phosphonic acid]: the results for the IC50 in test [1] and in test [2] were 7350 nM and 26500 nM, respectively.

`O=P(O)(O)C(F)(F)c1sc2cc(Br)ccc2c1Br` [Compound 298, ((3,6-dibromobenzo[b]thiophen-2-yl)difluoromethyl)phosphonic acid]: the IC50 stood at 11700 nM in test [1] and 21600 nM in test [2].

Take `N#Cc1ccc2c(Br)c(C(F)(F)P(=O)(O)O)sc2c1` [Compound 299, ((3-bromo-6-cyanobenzo[b]thiophen-2-yl)difluoromethyl)phosphonic acid]: the values for the IC50 in test [1] and in test [2] were 8980 nM and 17100 nM, respectively.

`NC(=O)c1ccc2c(Br)c(C(F)(F)P(=O)(O)O)sc2c1` [Compound 300, ((3-bromo-6-carbamoylbenzo[b]thiophen-2-yl)difluoromethyl)phosphonic acid]: the IC50 in test [1] was determined as 7330 nM; in test [2], 16900 nM.

With `N#Cc1ccc2c(C#N)c(C(F)(F)P(=O)(O)O)sc2c1` [Compound 301, ((3,6-dicyanobenzo[b]thiophen-2-yl)difluoromethyl)phosphonic acid], the IC50 in test [1] came out at 12900 nM; in test [2], 17000 nM.

`CC(C)(O)CCOc1ccc2c(Br)c(C(F)(F)P(=O)(O)O)sc2c1` [Compound 302, ((3-bromo-6-(3-hydroxy-3-methylbutoxy)benzo[b]thiophen-2-yl)difluoromethyl)phosphonic acid]: the IC50 worked out at 37900 nM in test [1] and 43700 nM in test [2].

On to `O=C(Nc1ccc2c(Br)c(C(F)(F)P(=O)(O)O)sc2c1)c1ccccc1` [Compound 303, ((6-benzamido-3-bromobenzo[b]thiophen-2-yl)difluoromethyl)phosphonic acid], for which the IC50 was 2690 nM in test [1] and 24700 nM in test [2].

On to `[2H]C([2H])([2H])NC(=O)c1cc(OCCCS(C)(=O)=O)c2sc(C(F)(F)P(=O)(O)O)c(Br)c2c1` [Compound 304], for which the concentration for half-maximal inhibition (IC50) in test [1] is 9.8 nM; in test [2], 8.9 nM.

Regarding `CCNC(=O)c1cc(OCCCS(C)(=O)=O)c2sc(C(F)(F)P(=O)(O)O)c(Br)c2c1` [Compound 305], the IC50 is 8.6 nM in test [1] and 7.6 nM in test [2].

On to `CC(C)(O)CCCOc1cc(C(N)=O)cc2c(Br)c(C(F)(F)P(=O)(O)O)sc12` [Compound 306], for which the IC50 in test [1] came to 25.7 nM; in test [2], 16.4 nM.
